Residues, ends and D or L forms follow the SMILES beside them. *: point of attachment. Lauroyl = CCCCCCCCCCCC(=O)*
What was measured:
[1] = Description: Adult male Sprague-Dawley rats weighing 350 to 400 g underwent midline neck incision with exposure of internal jugular vein. Targeted nanofiber 2.5 mg was dissolved in 1.0 mL of HBBS and injected within the internal jugular vein using 25 G needle. After complete injection, needle was withdrawn, pressure held at the injection site for 1 minute and the neck incision was closed. Rats were euthanized at 10, 15, 30, 60 min, 4, 16 hours, 4 and 6 days post injection and viscera (liver, lung, kidney and spleen) were harvested.
Carotid arteries and viscera were harvested after in-situ perfusion-fixation with PBS (250 mL) and placed in 2% paraformaldehyde overnight.

[2] = Small angle X-ray scattering (SAXS) of nanostructures; assay type: physicochemical
Description: Small angle X-ray scattering (SAXS) experiments were performed at the Advanced Photon Source, Argonne National Laboratory. The X-ray energy (15 keV) was selected using a double-crystal monochromator with a 30 mm offset. Samples were dissolved at a concentration of 5 mM in PBS and placed in 1.5 mm quartz capillary tubes. The typical incident X-ray flux on the sample was ˜1×10^12 photons/s with a 0.2×0.3 mm^2 collimator, and samples were exposed for 4 s. The 1D scattering profiles were obtained by azimuthal integration of the 2D patterns, with scattering from the capillaries and PBS buffer subtracted as background. Scattering profiles were then plotted on a relative scale as a function of the scattering vector q=(4π/λ) sin(θ/2), where θ is the scattering angle.

## CCCCCCCCCCCC(=O)NCCCC[C@H](NC(=O)[C@@H](NC(=O)[C@@H](NC(=O)[C@H](C)NC(=O)[C@H](C)NC(=O)[C@H](CCCCN)NC(=O)[C@H](CCCCN)NC(=O)[C@H](CS)NC(=O)[C@H](CCCCN)NC(=O)[C@@H]1CCCN1C(=O)[C@H](CC(C)C)NC(=O)[C@H](Cc1c[nH]c2ccccc12)NC(=O)[C@@H](NC(=O)[C@H](CC(C)C)NC(=O)[C@@H](N)CCCCN)C(C)C)C(C)C)C(C)C)C(=O)O [targeted nanofiber, KLVWLPKCK2A2V2K(C12)] (H-KLVWLPKCKKAAVVK(Lauroyl)-OH; N-terminus and C-terminus assumed)
[1]; 2.5 mg internal jugular vein
  earliest time fluorescence present within the kidneys: 10 min
  fluorescence in the kidneys over time: increasing fluorescence
  fluorescence in the liver over time: Decreasing fluorescence
  latest time fluorescence present within the kidneys: 6 days
[1]; 2.5 mg internal jugular vein, 10 min to 6 days
  fluorescence within the liver and kidneys: Fluorescence was observed
[1]; any of the time points
  fluorescence in the brain, heart, intestine and lungs: no fluorescence detected

## KLWVLPKC
[2]
  self-assembly by SAXS: did not display any evidence of self-assembly

— patent US9517275B2, “Targeted therapy for the prevention of restenosis in the cardiovascular system” (Northwestern University, priority 2013, dated 2016)
